In US11208400B2, “Substituted 6-(1H-pyrazol-1-yl)pyrimidin-4-amine derivatives and uses thereof” (Bayer Aktiengesellschaft, priority 2016, dated 2021):

target: T1, human Npt2a (Homo sapiens, UniProt Q06495); test: Npt2a activity cell based assay, membrane potential dye, CHO T-REx hNpt2a cells; settings: doxycycline-induced, depolarization by sodium phosphate influx, average or median values if tested more than once
T1 construct: expressed in transfected cells
T1 sequence (Q06495 1-639): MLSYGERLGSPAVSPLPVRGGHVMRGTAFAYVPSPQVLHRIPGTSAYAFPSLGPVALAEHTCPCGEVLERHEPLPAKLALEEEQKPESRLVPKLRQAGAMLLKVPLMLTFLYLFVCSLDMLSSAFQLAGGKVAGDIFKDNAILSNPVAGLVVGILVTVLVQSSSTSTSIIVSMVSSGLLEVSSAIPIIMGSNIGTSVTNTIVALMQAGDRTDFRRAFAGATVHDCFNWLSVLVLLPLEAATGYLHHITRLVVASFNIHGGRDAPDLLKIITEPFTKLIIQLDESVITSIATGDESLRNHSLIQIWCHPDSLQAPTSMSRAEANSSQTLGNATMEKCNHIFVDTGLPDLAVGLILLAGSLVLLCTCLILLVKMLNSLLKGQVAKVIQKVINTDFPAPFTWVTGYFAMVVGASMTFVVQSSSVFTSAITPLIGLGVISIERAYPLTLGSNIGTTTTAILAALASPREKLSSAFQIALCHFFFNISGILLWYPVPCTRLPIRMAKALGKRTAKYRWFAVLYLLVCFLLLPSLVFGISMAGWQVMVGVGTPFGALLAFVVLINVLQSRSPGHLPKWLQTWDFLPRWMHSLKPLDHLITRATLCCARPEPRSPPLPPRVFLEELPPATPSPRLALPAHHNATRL
Outline: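 Doxycycline-induced (0.5 μg/mL, 24 h) CHO T-REx cells were loaded with membrane potential dye in sodium-free NHE buffer (pH 7.4) and exposed to compound (50 μM–1 nM, 5 min, room temperature).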

Going from `Cc1cc(C)n(-c2cc(Nc3cn(-c4ccc(F)cc4)nc3C)ncn2)n1` [Example 77, 6-(3,5-dimethyl-1H-pyrazol-1-yl)-N-[1-(4-fluorophenyl)-3-methyl-1H-pyrazol-4-yl]pyrimidin-4-amine] to `Cc1cc(C)n(-c2cc(Nc3nn(C)c(-c4ccc(F)cc4)c3Cl)ncn2)n1` [Example 91, N-[4-chloro-5-(4-fluorophenyl)-1-methyl-1H-pyrazol-3-yl]-6-(3,5-dimethyl-1H-pyrazol-1-yl)pyrimidin-4-amine], the IC50 falls from 2230 nM to 5.73 nM (390-fold).

Compared with `CCOC(=O)c1c(C)nn(-c2cc(Nc3c(C)c(-c4ccc(C)nc4)nn3CC3CC3)ncn2)c1C` [Example 418, ethyl 1-(6-{[1-(cyclopropylmethyl)-4-methyl-3-(6-methylpyridin-3-yl)-1H-pyrazol-5-yl]amino}pyrimidin-4-yl)-3,5-dimethyl-1H-pyrazole-4-carboxylate], `CCOC(=O)c1c(C)nn(-c2cc(Nc3c(Cl)c(-c4ccc(C#N)cc4)nn3CC3CC3)ncn2)c1C` [Example 442, ethyl 1-(6-{[4-chloro-3-(4-cyanophenyl)-1-(cyclopropylmethyl)-1H-pyrazol-5-yl]amino}pyrimidin-4-yl)-3,5-dimethyl-1H-pyrazole-4-carboxylate] is 8.1-fold lower in IC50: 65 nM for the first, 8 nM for the second. The second is the more potent here.

First: CC(=O)c1c(Nc2cc(-n3nc(C)cc3C)ncn2)nn(C)c1-c1ccc(F)cc1 [Example 82, 1-[3-{[6-(3,5-dimethyl-1H-pyrazol-1-yl)pyrimidin-4-yl]amino}-5-(4-fluorophenyl)-1-methyl-1H-pyrazol-4-yl]ethanone]
Second: Cc1nn(-c2cc(Nc3nn(C)c(-c4ccc(F)cc4)c3C)ncn2)c(C)c1C#N [Example 348, 1-(6-{[5-(4-fluorophenyl)-1,4-dimethyl-1H-pyrazol-3-yl]amino}pyrimidin-4-yl)-3,5-dimethyl-1H-pyrazole-4-carbonitrile]
The IC50 of the first is 100-fold higher: 1500 nM for the first, 15 nM for the second. The second is the more potent here.

Going from `Cc1nn(-c2cc(Nc3n[nH]c(-c4ccccc4)c3C)ncn2)c(C)c1Cl` [Example 11, 6-(4-chloro-3,5-dimethyl-1H-pyrazol-1-yl)-N-(4-methyl-5-phenyl-1H-pyrazol-3-yl)pyrimidin-4-amine] to `Cc1nn(-c2cc(Nc3n[nH]c(-c4ccccc4)c3Cl)ncn2)c(C)c1Cl` [Example 54, 6-(4-chloro-3,5-dimethyl-1H-pyrazol-1-yl)-N-(4-chloro-5-phenyl-1H-pyrazol-3-yl)pyrimidin-4-amine], the IC50 rises from 50.3 nM to 90.3 nM (1.8-fold).

Going from `CCc1c(Nc2cc(-n3cc4c(n3)CCCC4)ncn2)n[nH]c1-c1ccc(F)cc1` [Example 18, N-[4-ethyl-5-(4-fluorophenyl)-1H-pyrazol-3-yl]-6-(4,5,6,7-tetrahydro-2H-indazol-2-yl)pyrimidin-4-amine] to `CCc1c(Nc2cc(-n3nc(C)c4c3CCCC4(C)O)ncn2)nn(C)c1-c1ccc(F)cc1` (racemic) [Example 134, (±)-1-(6-{[4-ethyl-5-(4-fluorophenyl)-1-methyl-1H-pyrazol-3-yl]amino}pyrimidin-4-yl)-3,4-dimethyl-4,5,6,7-tetrahydro-1H-indazol-4-ol (Racemate)], the IC50 rises from 110 nM to 180 nM (1.6-fold).

Compared with `Cc1cc(C)n(-c2cc(Nc3n[nH]c(-c4ccc(F)cc4F)c3Cl)ncn2)n1` [Example 6, N-[4-chloro-5-(2,4-difluorophenyl)-1H-pyrazol-3-yl]-6-(3,5-dimethyl-1H-pyrazol-1-yl)pyrimidin-4-amine], `Cc1nn(-c2cc(Nc3nn(C)c(-c4ccc(F)cc4F)c3Cl)ncn2)c2ccccc12` [Example 57, N-[4-chloro-5-(2,4-difluorophenyl)-1-methyl-1H-pyrazol-3-yl]-6-(3-methyl-1H-indazol-1-yl)pyrimidin-4-amine] is 2.4-fold higher in IC50: 49 nM for the first, 117 nM for the second.

Compared with `COc1c(-c2ccc(C#N)cc2)nn(CC2CC2)c1Nc1cc(-n2nc(C)c(C(C)OC)c2C)ncn1` (single isomer, unassigned) [Example 334, 4-{1-(cyclopropylmethyl)-4-methoxy-5-[(6-{4-[1-methoxyethyl]-3,5-dimethyl-1H-pyrazol-1-yl}pyrimidin-4-yl)amino]-1H-pyrazol-3-yl}benzonitrile], `CCOC(=O)c1c(C)nn(-c2cc(Nc3c(OC)c(-c4ccc(C#N)cc4)nn3C)ncn2)c1C` [Example 446, ethyl 1-(6-{[3-(4-cyanophenyl)-4-methoxy-1-methyl-1H-pyrazol-5-yl]amino}pyrimidin-4-yl)-3,5-dimethyl-1H-pyrazole-4-carboxylate] is 3.4-fold lower in IC50: 41 nM for the first, 12 nM for the second.

Compared with `Cc1cc(C(F)F)n(-c2cc(Nc3c(C)nn(-c4ccc(F)cc4)c3C)ncn2)n1` [Example 93, 6-[5-(difluoromethyl)-3-methyl-1H-pyrazol-1-yl]-N-[1-(4-fluorophenyl)-3,5-dimethyl-1H-pyrazol-4-yl]pyrimidin-4-amine], `CCc1c(-c2ccc(F)cc2)nn(CC(F)F)c1Nc1cc(-n2nc(C)cc2C)ncn1` [Example 162, N-[1-(2,2-difluoroethyl)-4-ethyl-3-(4-fluorophenyl)-1H-pyrazol-5-yl]-6-(3,5-dimethyl-1H-pyrazol-1-yl)pyrimidin-4-amine] is 3.3-fold higher in IC50: 29 nM for the first, 97 nM for the second.

Compared with `CCOC(=O)c1c(C)nn(-c2cc(Nc3c(Cl)c(-c4ccc(F)cc4)nn3C)ncn2)c1C` [Example 449, ethyl 1-(6-{[4-chloro-3-(4-fluorophenyl)-1-methyl-1H-pyrazol-5-yl]amino}pyrimidin-4-yl)-3,5-dimethyl-1H-pyrazole-4-carboxylate], `CCOC(=O)c1c(C)nn(-c2cc(Nc3c(Cl)c(-c4ccccc4)nn3C)ncn2)c1C` [Example 79, ethyl 1-{6-[(4-chloro-1-methyl-3-phenyl-1H-pyrazol-5-yl)amino]pyrimidin-4-yl}-3,5-dimethyl-1H-pyrazole-4-carboxylate] is 3.9-fold higher in IC50: 8 nM for the first, 31 nM for the second. The first is the more potent here.

Going from `Cc1cc(C)n(-c2cc(Nc3c(C)c(-c4ccc(Cl)cc4)nn3CC3CC3)ncn2)n1` [Example 312, N-[3-(4-chlorophenyl)-1-(cyclopropylmethyl)-4-methyl-1H-pyrazol-5-yl]-6-(3,5-dimethyl-1H-pyrazol-1-yl)pyrimidin-4-amine] to `Cc1cc(C)n(-c2cc(Nc3c(C)c(-c4ccncc4)nn3CC3CC3)ncn2)n1` [Example 350, N-[1-(cyclopropylmethyl)-4-methyl-3-(pyridin-4-yl)-1H-pyrazol-5-yl]-6-(3,5-dimethyl-1H-pyrazol-1-yl)pyrimidin-4-amine], the IC50 rises from 10 nM to 1300 nM (130-fold). The first is the more potent here.

First: Cc1nn(-c2cc(Nc3nn(C)c(-c4ccccc4)c3Cl)ncn2)c(C)c1Cl [Example 53, 6-(4-chloro-3,5-dimethyl-1H-pyrazol-1-yl)-N-(4-chloro-1-methyl-5-phenyl-1H-pyrazol-3-yl)pyrimidin-4-amine]
Second: COc1ccc(-c2nn(CC3CC3)c(Nc3cc(-n4nc(C)c(Cl)c4C)ncn3)c2C)cn1 [Example 498, 6-(4-chloro-3,5-dimethyl-1H-pyrazol-1-yl)-N-[1-(cyclopropylmethyl)-3-(6-methoxypyridin-3-yl)-4-methyl-1H-pyrazol-5-yl]pyrimidin-4-amine]
The IC50 of the first is 120-fold lower: 11.3 nM for the first, 1310 nM for the second. The first is the more potent here.

Compared with `CCc1c(Nc2cc(-n3nc(C)c(C(=O)OC(C)(C)C)c3C(F)F)ncn2)nn(C)c1-c1ccc(F)cc1` [Example 166, tert-butyl 5-(difluoromethyl)-1-(6-{[4-ethyl-5-(4-fluorophenyl)-1-methyl-1H-pyrazol-3-yl]amino}pyrimidin-4-yl)-3-methyl-1H-pyrazole-4-carboxylate], `CCc1c(-c2ccc(F)cc2)nn(C)c1Nc1cc(-n2nc(C)c(Br)c2C)ncn1` [Example 265, 6-(4-bromo-3,5-dimethyl-1H-pyrazol-1-yl)-N-[4-ethyl-3-(4-fluorophenyl)-1-methyl-1H-pyrazol-5-yl]pyrimidin-4-amine] is 20-fold higher in IC50: 9 nM for the first, 180 nM for the second.

Going from `CCc1c(-c2ccc(F)cc2)nn(CC2CCC2)c1Nc1cc(-n2nc(C)cc2C)ncn1` [Example 182, N-[1-(cyclobutylmethyl)-4-ethyl-3-(4-fluorophenyl)-1H-pyrazol-5-yl]-6-(3,5-dimethyl-1H-pyrazol-1-yl)pyrimidin-4-amine] to `CNC(=O)Oc1c(C)nn(-c2cc(Nc3c(C)c(-c4ccc(F)cc4)nn3CC3CC3)ncn2)c1C` [Example 519, 1-(6-{[1-(cyclopropylmethyl)-3-(4-fluorophenyl)-4-methyl-1H-pyrazol-5-yl]amino}pyrimidin-4-yl)-3,5-dimethyl-1H-pyrazol-4-yl methylcarbamate], the IC50 rises from 106 nM to 230 nM (2.2-fold).

Going from `CCOC(=O)c1c(C)nn(-c2cc(Nc3n[nH]c(-c4ccc(C#N)cc4)c3C)ncn2)c1C` [Example 136, ethyl 1-(6-{[5-(4-cyanophenyl)-4-methyl-1H-pyrazol-3-yl]amino}pyrimidin-4-yl)-3,5-dimethyl-1H-pyrazole-4-carboxylate] to `Cc1nn(-c2cc(Nc3c(C)c(-c4ccc(OC(F)F)cc4)nn3CC3CC3)ncn2)c(C)c1C#N` [Example 477, 1-[6-({1-(cyclopropylmethyl)-3-[4-(difluoromethoxy)phenyl]-4-methyl-1H-pyrazol-5-yl}amino)pyrimidin-4-yl]-3,5-dimethyl-1H-pyrazole-4-carbonitrile], the IC50 falls from 360 nM to 98 nM (3.7-fold).

With `COc1c(C)nn(-c2cc(Nc3c(C)c(-c4ccc(F)cn4)nn3C)ncn2)c1C` [Example 468, N-[3-(5-fluoropyridin-2-yl)-1,4-dimethyl-1H-pyrazol-5-yl]-6-(4-methoxy-3,5-dimethyl-1H-pyrazol-1-yl)pyrimidin-4-amine] the IC50 was 300 nM.
